# Assay results as given in patent publication US7741493B2, “Heterocyclic compounds as P2X7 ion channel blockers” (Aventis Pharmaceuticals Inc., priority 2003, dated 2010).
# Counter-ions that a name gives are not always drawn.
# Legend:
# [1] = test system: Wistar derived male rats; test: 2,4-dinitrobenzenesulfonic acid (DNBS) induced distal colitis; assay type: in vivo, rat; conditions: 30 mg/kg×7, oral administration
# [2] = biological target: T1, P2X7 (Homo sapiens, UniProt Q99572); test: YO-PRO-1 dye uptake assay in U373 cells stably expressing P2X7; assay type: cell-based; set-up: The complete open reading frame of human P2X7 was amplified from Incyte clone 148057; expressed in transfected cells; conditions: dye uptake through P2X7, U373 cells, 300 μM BzATP, 5 μM YO-PRO-1, test compounds 30 nM to 3 μM
# T1 sequence (Q99572 1-595): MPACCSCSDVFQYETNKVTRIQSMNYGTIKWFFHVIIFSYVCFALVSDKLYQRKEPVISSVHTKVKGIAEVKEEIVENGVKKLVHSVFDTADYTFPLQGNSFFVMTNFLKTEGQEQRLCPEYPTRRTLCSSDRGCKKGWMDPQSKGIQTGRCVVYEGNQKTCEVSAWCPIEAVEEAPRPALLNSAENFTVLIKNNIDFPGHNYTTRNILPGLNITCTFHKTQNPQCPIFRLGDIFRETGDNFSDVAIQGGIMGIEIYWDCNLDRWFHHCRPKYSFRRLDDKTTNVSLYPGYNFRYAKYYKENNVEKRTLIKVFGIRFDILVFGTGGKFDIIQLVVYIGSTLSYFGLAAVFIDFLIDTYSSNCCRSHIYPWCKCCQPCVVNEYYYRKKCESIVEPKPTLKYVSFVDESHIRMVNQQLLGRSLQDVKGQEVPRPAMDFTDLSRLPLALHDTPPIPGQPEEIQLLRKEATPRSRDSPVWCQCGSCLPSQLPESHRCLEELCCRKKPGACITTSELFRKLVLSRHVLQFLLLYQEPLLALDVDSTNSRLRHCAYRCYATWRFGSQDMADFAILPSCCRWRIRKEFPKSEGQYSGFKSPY
# Method in brief: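 U373 cells stably expressing human P2X7 preincubated 20 min at 37° C. with compound (30 nM to 3 μM) in Mg/Ca-free HBSS. YO-PRO-1 (5 μM final) and BzATP (300 μM final) then added for 1.5 h at 37° C.; dye-uptake fluorescence compared with compound-free control.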
# [3] = biological target: T1, P2X7; test: BzATP-induced IL-1β secretion from human monocytes/macrophages activated by beta amyloid peptide 1-42 (ELISA); assay type: cell-based; set-up: Monocytes were isolated from peripheral blood mononuclear cells (PBMCs); endogenous in cells; host or cells: primary monocytes isolated from peripheral blood mononuclear cells
# Experimental: Cell isolation: Monocytes were isolated from peripheral blood mononuclear cells (PBMCs) as follows. Whole blood was layered directly onto Histopak 1077-1 columns (Sigma Biochemicals) and centrifuged at 800×g for 15 minutes. The PBMC band of cells was removed to a fresh 50 ml culture tube and diluted 1:1 with wash buffer (Phosphate buffered saline, pH 7.4 containing 2 mM EDTA and 5 mg/ml BSA) followed by centrifugation at 800×g for 5 minutes. Cells were then washed by sequential resuspension of the cell pellet in wash buffer and centrifugation at 600×g for 5 minutes. The wash process was repeated until the supernatant was clear of contaminating platelets (5 to 6 washes). Monocytes were then purified from the PBMCs by negative selection using a monocyte isolation kit (Miltenyi Biotec, Inc) that contains antibodies to non-monocytic cells, running the cells over a magnetic column to remove antibody-bound cells, and collecting the flow through volume of monocytes. Monocytes were washed once with wash buffer and seeded at 10E5 cells per well in 100 μl serum-free RPMI 1640 in 96-well plates and incubated for 1 hour at 37° C. in a 5% CO2/95% humidified tissue culture incubator. After 1 hour, the medium was replaced with 100 μl complete culture medium (RPMI 1640, 10% human serum-type AB (heat inactivated), 25 mM HEPES, 2 mM glutamine, 50 U/ml each of penicillin and streptomycin) and incubated overnight (16 hours). Dosing regimen: The next day, the culture medium was replaced with 100 μl fresh complete culture medium in the absence or presence of human beta amyloid 1-42 peptide (5 μM) and incubated at 37° C. in a 5% CO2/95% humidified tissue culture incubator for 5 hours. Medium was then removed and discarded. Each well was washed once with Hanks buffered saline (HBSS) containing 1 mM CaCl2 followed by the addition of 80 μl of HBSS/CaCl2. […] Medium was then removed to new 96-well plates for storage at −70° C. until the IL-1β content was quantitated by ELISA (from R&D Systems). The cells were washed once with HBSS/CaCl2 followed by lysing the cells with 100 μl ice cold lysis buffer (100 mM Tris, pH 7.6, 1% triton X-100, and 1 tablet per 30 ml Complete TM protease inhibitor from Roche Biochemicals, Inc). Cell lysates were stored at −70° C. until the IL-1β was quantitated by ELISA. The results thus obtained for percent inhibition of BzATP-induced IL-1β secretion using a few of the P2X-7 compounds of the present invention are summarized in Table 7.
# [4] = test system: Balb/cByJ mice; test: monoclonal antibody (mAb) type II collagen induced arthritis; assay type: in vivo, mouse; conditions: 3 mg/kg×3, PO
# Experimental: This Example illustrates the anti-inflammatory activity of the compounds of this invention using a model of Balb/c mice subjected to monoclonal antibody (mAb) type II collagen induced arthritis.
# A compound of this invention is dissolved in vehicle of 2% Tween 80/0.9% NaCl, at doses of 50 or 30 and administered orally (50 mg/kg) or intraperitoneally at 30 mg/kg once daily for 3 consecutive days after monoclonal antibody of collagen was injected. Dosing volume is 20 ml/kg.
# Groups of 5 Balb/cByJ mice strain, 6-8 weeks of age, are used for the induction of arthritis by monoclonal antibodies (mAbs) responding to type II collagen, plus lipopolysaccharide (LPS). The animals are administered intravenously with a combination of 4 different mAbs (D8, F10, DI-2G and A2) in total of 4 mg/mouse at day 0, and followed by intravenous 25 μg of LPS 72 hours later (day 3). From day 3, one hour after LPS administration, ML-659 at 50 mg/kg (PO) or 30 mg/kg (IP) and vehicle (2% Tween 80/0.9% NaCl, PO) as well as the positive control indomethacin, 3 mg/kg (PO) are administrated once daily for 3 consecutive days. A plethysmometer (Ugo Basile Cat # 7150) with water cell (12 mm diameter) is used for the measurement of increase in volume of the two hind paws at day 0, 5, 7, 10, 14, and 17. The percent inhibition of increase in volume is calculated by the following formula: Inhibition (%): [1−(Tn−To)/(Cn−Co)]×100 Where: Co (Cn): volume of day 0 (day n) in vehicle control To (Tn): volume of day 0 (day n) in test compound-treated group The reduction of both of two hind paws edema by more than 30% is considered significant.
# [5] = test system: Long Evans derived male rats; test: carrageenan induced paw edema; assay type: in vivo, rat; conditions: 150 mg/kg, PO
# [6] = BzATP (300 μM)-induced IL-1β secretion, human monocytes primed with beta amyloid 1-42 (5 μM), read-out: IC50
Structure (SMILES),IC50 ([2]; read-out: IC50),further results
O=C(O)c1cc(/N=N/c2ccc(S(=O)(=O)Nc3ccccn3)cc2)ccc1O [sulfasalazine],–,inhibition of the inflammation [1]: 37%
"Fc1cccc(CNC2=N[C@@H](c3cccc(F)c3)[C@@H](c3cccc(F)c3)N2)c1 [[cis-4,5-bis-(3-Fluorophenyl)-4,5-dihydro-1H-imidazol-2-yl]-(3-fluorobenzyl)amine hydrochloride]",42 nM,IC50 [3]: 1.28 µM
COc1ccc2c(c1)c(CC(=O)O)c(C)n2C(=O)c1ccc(Cl)cc1 [indomethacin],–,effect relative to the vehicle treated group (hind paws edema) ([4]; day 5): 63%; effect relative to the vehicle treated group (hind paws edema) ([4]; day 7): 70%; effect relative to the vehicle treated group (hind paws edema) ([4]; day 10): 80%; effect relative to the vehicle treated group (hind paws edema) ([4]; day 14): 88%; effect relative to the vehicle treated group (hind paws edema) ([4]; day 17): 85%
Fc1ccc(CNC2=NC(c3ccccc3)C(c3ccccc3)N2)cc1 (stereo not drawn) [hydrochloride],–,"IC50 [3, 6]: 0.693 µM"
CC(=O)Oc1ccccc1C(=O)O [aspirin],–,inhibition of inflammation (hind paw edema) [5]: 38%
CC(C)(CC1=NC(c2ccccc2)C(c2ccccc2)N1)c1ccccc1 (stereo not drawn) [trifluoroacetate],–,"IC50 [3, 6]: 0.178 µM"
"Fc1ccccc1[C@H]1NC(NCc2ccccc2)=N[C@H]1c1ccccc1F [(cis-4,5-bis-(2-Fluorophenyl)-4,5-dihydro-1H-imidazol-2-yl)-benzylamine hydrochloride]",531 nM,–
"C[C@]1(c2ccccc2)N=C(Cc2ccc(F)cc2F)N[C@H]1c1ccccc1 (relative stereo) [2-(2,4-Difluorobenzyl)-cis-4,5-diphenyl-4-methyl-4,5-dihydro-1H-imidazole trifluoroacetate]",16 nM,–
"Cc1ccccc1CC1=N[C@H](c2ccccc2)[C@H](c2ccccc2)N1 [cis-4,5-diphenyl-2-(2-methylbenzyl)-4,5-dihydro-1H-imidazole]",–,IC50 ([2]; IC50 (nM)): 321 nM
"Fc1ccc(CC2=N[C@@H](c3cccc(F)c3)[C@@H](c3cccc(F)c3)N2)cc1 [2-(4-Fluorobenzyl)-cis-4,5-bis-(3-fluorophenyl)-4,5-dihydro-1H-imidazole trifluoroacetate]",217 nM,–
"Fc1ccc(CNC2=N[C@@H](c3cccc(Cl)c3)[C@@H](c3cccc(Cl)c3)N2)cc1 [[cis-4,5-bis-(3-Chlorophenyl)-4,5-dihydro-1H-imidazol-2-yl]-(4-fluorobenzyl)amine hydrochloride]",318 nM,–
C[C@@]1(c2cccc(F)c2)N=C(NCc2ccc(F)cc2)N[C@@H]1c1cccc(F)c1,37 nM,–
"Fc1ccc(CNC2=N[C@@H](c3ccccc3Br)[C@@H](c3ccccc3Br)N2)cc1 [[cis-4,5-bis-(2-Bromophenyl)-4,5-dihydro-1H-imidazol-2-yl]-(4-fluorobenzyl)amine hydrochloride]",898 nM,–
"c1ccc(COc2ccc(CSC3=N[C@@H](c4ccccc4)[C@@H](c4ccccc4)N3)cc2OCc2ccccc2)cc1 [2-[(3,4-Dibenzyloxybenzyl)thio]-cis-4,5-diphenyl-4,5-dihydro-1H-imidazole hydrochloride]",548 nM,–
"C[C@]1(c2ccccc2)N=C(OCC2CCCCC2)N[C@H]1c1ccccc1 (relative stereo) [2-(Cyclohexylmethoxy)-cis-4,5-diphenyl-4-methyl-4,5-dihydro-1H-imidazole trifluoroacetate]",275 nM,–

# Continued, in another order:
IC50 ([2]; read-out: IC50),Structure (SMILES),further results
819 nM,"Fc1ccccc1CSC1=N[C@@H](c2ccccc2)[C@@H](c2ccccc2)N1 [cis-4,5-diphenyl-2-(2-fluorobenzyl)thio-4,5-dihydro-1H-imidazole]",–
240 nM,"Fc1cccc(CSC2=N[C@@H](c3ccccc3)[C@@H](c3ccccc3)N2)c1 [cis-4,5-diphenyl-2-(3-fluorobenzyl)thio-4,5-dihydro-1H-imidazole]",–
409 nM,"COc1ccccc1CNC1=N[C@@H](c2ccccc2)[C@@H](c2ccccc2)N1 [cis-4,5-diphenyl-2-(2-methoxybenzyl)amino-4,5-dihydro-1H-imidazole]",–
300 nM,"Fc1ccc(CSC2=N[C@@H](c3ccccc3)[C@@H](c3ccccc3)N2)cc1 [cis-4,5-diphenyl-2-(4-fluorobenzyl)thio-4,5-dihydro-1H-imidazole]",–
96 nM,"Fc1ccc(CNC2=N[C@@H](c3ccccc3)[C@@H](c3ccccc3)N2)cc1 [(cis-4,5-Diphenyl-4,5-dihydro-1H-imidazol-2-yl)-(4-fluorobenzyl)amine hydrochloride]",–
304 nM,"Fc1cccc([C@H]2NC(CCc3ccccc3F)=N[C@H]2c2cccc(F)c2)c1 [2-[2-(2-Fluorophenyl)ethyl]-cis-4,5-bis-(3-fluorophenyl)-4,5-dihydro-1H-imidazole trifluoroacetate]",–
13 nM,Fc1ccc(CC2=N[C@@H](c3ccccc3)[C@@H](c3ccccc3)N2)cc1Cl [trifluoroacetate],"IC50 [3, 6]: 0.157 µM"
167 nM,"Cc1ccccc1[C@H]1NC(NCc2ccccc2)=N[C@H]1c1ccccc1C [[cis-4,5-bis-(2-Methylphenyl)-4,5-dihydro-1H-imidazol-2-yl]-benzylamine hydrochloride]",–
315 nM,"c1ccc([C@H]2NC(COC3CCCCC3)=N[C@H]2c2ccccc2)cc1 [2-[(Cyclohexyloxy)methyl]-cis-4,5-diphenyl-4,5-dihydro-1H-imidazole trifluoroacetate]",–
